This series is described as follows: gradient 5% acetonitrile 3 min, to 50% in 2 min, to 85% in 15 min, held 3 min, 100 µL/min. The note with it: column: Zorbax Extend-C18 2.1 x 50 mm; eluents: water / acetonitrile, 0.1% formic acid. The gist of the method:
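Over 3 months, pure standards in mixtures of ~100 molecules were run by HPLC coupled to a quadrupole time-of-flight mass spectrometer in positive and negative ionization mode. The column was a Zorbax Extend-C18 (2.1 × 50 mm, 1.8 μm) at 100 μL/min, eluted with water and acetonitrile each holding 0.1% formic acid, with 40 μL dead and 900 μL dwell volumes. Retention time was determined from adduct peaks chosen by software and checked manually.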
`COc1ccccc1N1CCN(c2cc(SCC(=O)Nc3c(C)cc(C)cc3C)ncn2)CC1` registered an RP-LC retention time of 1040 s.

Take `CN1CCC(N2CCN(S(=O)(=O)c3ccccc3Cl)CC2)C1=O` (centres undefined): the RP-LC retention time is 570 s. In turn, `CCOc1ccc(-c2noc(N3CCC(C(=O)N4CCCCC4)CC3)n2)cc1OC` came in with an RP-LC retention time of 889 s. With `CCN1CCCC1CNC(=O)c1nc(-c2oc3c(C)cccc3c2C)no1` (centres undefined), the RP-LC retention time is 670 s. `COc1ccc(-c2cc(C(=O)NCC(c3ccc(C)o3)N(C)C)no2)cc1` (centres undefined) registered an RP-LC retention time of 684 s. In turn, `COCCC1CCN(C(=O)COc2ccc(OC)cc2)CC1` returned an RP-LC retention time of 768 s. Turning to `Cn1cc(C(=O)NCCC2=CCCCC2)c2nn(-c3ccccc3)c(=O)c-2c1`, the RP-LC retention time is 991 s.

Consider `COc1ccccc1CC(=O)N1CCC2(CC1)N=C(c1ccccc1)NO2`, for which the RP-LC retention time stood at 791 s. For `CNC(=O)N1CCCC(c2cccc(C(=O)NCc3ccc(OC(C)C)cc3)c2)C1` (centres undefined), the RP-LC retention time was determined as 835 s.

Turning to `O=C(c1ccoc1)N1CCCC(c2nc(-c3ccc(F)cc3)n[nH]2)C1` (centres undefined), the RP-LC retention time turned out to be 710 s.

Take `Cc1ccc(Cl)cc1NC(=O)Cn1cccc1-c1nnc(C2CC2)o1`: the RP-LC retention time was 956 s. Turning to `COc1cccc(CNC(=O)Cn2c(C)nc3onc(C)c3c2=O)c1`, the RP-LC retention time amounted to 727 s. Turning to `COc1ccc(-c2nc(C3CC(=O)N(c4ccc(F)cc4)C3)no2)cc1OC` (centres undefined), the RP-LC retention time worked out at 884 s.

In the case of `COc1ccc2c(c1)CC(NC(=O)NCc1ccc(OC)cc1OC)CO2` (centres undefined), the RP-LC retention time is 780 s.

Regarding `CCc1nn2c(CNC(=O)c3ccc(C)c(F)c3)c(-c3ccccc3)nc2s1`, the RP-LC retention time was 985 s. Compound `O=C(c1nc(-c2cccc(F)c2)n2c1CCCCC2)N1CCN(c2ncccn2)CC1` gave an RP-LC retention time of 724 s. The compound `Cc1ccc(NS(=O)(=O)c2cc3n(c2)CCN(C)C3=O)cc1` had an RP-LC retention time of 700 s. Compound `CCOCCn1c(=O)c2c(nc3n2CC(C)CN3c2ccc(OC)cc2)n(C)c1=O` (centres undefined) had an RP-LC retention time of 853 s. Take `COc1ccc2c(=O)c(Oc3ccc(C(=O)NC4CCS(=O)(=O)C4)cc3)coc2c1` (centres undefined): the RP-LC retention time is 687 s. For `COc1ccc(NC(=O)C2CCN(C(=O)C3Sc4ccccc4NC3=O)CC2)cc1` (centres undefined), the RP-LC retention time was found to be 729 s. `Cc1sc(C)c(S(=O)(=O)N2CCCC2)c1-c1cc(C(F)(F)F)on1` had an RP-LC retention time of 1130 s. Under `CC(=O)Nc1ccc(C(=O)N2CCC3(CC2)N=C(c2ccc(Cl)cc2)NO3)cc1` stands 718 s; under `c1ccc(-c2nc(CSc3ccc(-n4cccn4)nn3)cs2)cc1`, 1020 s.

With `CCc1ccc(-n2c(CN3CCN(C(=O)NCC4CCCO4)CC3)nc3cccnc32)cc1` (centres undefined), the RP-LC retention time turned out to be 636 s. Under `CCCn1c(=O)sc2cc(S(=O)(=O)N3CCC(C(=O)Nc4ccc(C)cn4)CC3)ccc21` stands 808 s; under `O=C(NC1CCN(c2cc(-c3cccs3)[nH]n2)C1)c1ccncc1` (centres undefined), 612 s. Under `O=C(Nc1cnc(-c2ccc(Cl)cc2)nc1)c1ccc(Br)o1` stands 1120 s.

`O=C(NCCCn1cccc1)c1ccno1` came in with an RP-LC retention time of 644 s.

`CCOC(=O)Nc1csnn1`: the RP-LC retention time is 711 s. `O=S(=O)(Nc1cccc(C(F)(F)F)c1)c1ccc2c(c1)-c1oncc1CO2`: the RP-LC retention time worked out at 998 s.

Turning to `O=C1NCCCn2cc(S(=O)(=O)N3CCN(c4cccc(Cl)c4)CC3)cc21`, the RP-LC retention time is 804 s. As to `O=c1n(Cc2cccc(Br)c2)nc2c(S(=O)(=O)N3CCOCC3)cccn12`, the RP-LC retention time is 811 s.

The compound `O=c1c2nc(-c3ccc(F)cc3)cn2ccn1-c1ccc(Cl)cc1` registered an RP-LC retention time of 867 s.

With `O=C(Cc1ccsc1)NCCC1CCN(C(=O)Nc2ccc(F)cc2F)CC1`, the RP-LC retention time worked out at 766 s. Turning to `Cc1cc(NC(=O)C2(C)Oc3cccnc3NC2=O)ccc1F` (centres undefined), the RP-LC retention time turned out to be 739 s.

Regarding `O=C(Nc1ccc(F)cc1)N1CCN(Cc2nc3cc(-c4ccccc4)ccc3o2)CC1`, the RP-LC retention time amounted to 860 s.

Consider `CCc1nnc(NS(=O)(=O)c2ccc(NC(=O)c3ccc([N+](=O)[O-])s3)cc2)s1`, for which the RP-LC retention time amounted to 769 s. Compound `COc1ccc(NC(=O)Cn2nc3cc(-c4ccccc4)nc(C)n3c2=O)cc1OC` had an RP-LC retention time of 830 s. Compound `COc1cccc(OC)c1C(=O)N1CCCC1c1cc(C(C)C)on1` (centres undefined) registered an RP-LC retention time of 794 s. `COc1cccc(CC(=O)Nc2ccc3c(c2)Sc2ncccc2C(=O)N3C(C)C)c1` had an RP-LC retention time of 855 s. Next, `COc1ccc(NC(=O)C2=Cc3ccccc3OC=C2)c(OC)c1`: 1030 s; `Cc1nn(CC(=O)N2CCN(c3ccc(Cl)cc3)CC2)c(=O)c2nc(C(C)C)sc12`: 921 s; `CN1CCCc2cc(C(CNC(=O)C(=O)NCc3ccc4c(c3)OCO4)N3CCCCC3)ccc21` (centres undefined): 734 s.

Take `COc1c(C)cnc(Cn2cnc3c(Cl)nc(N)nc32)c1C`: the RP-LC retention time turned out to be 638 s. `Cc1cccc(N2CCN(C(=O)C3c4ccccc4CCN3C(=O)C3CC3)CC2)c1C` (centres undefined) displayed an RP-LC retention time of 1080 s. In the case of `COc1ccc(CNC(=O)CN2CCN(Cc3ccccc3)C(=O)C2=O)cc1`, the RP-LC retention time was determined as 684 s.

With `Cc1cccc(NC(=O)C2CCN(S(C)(=O)=O)c3cc(C)ccc3O2)c1` (centres undefined), the RP-LC retention time came out at 943 s. `CCC1(O)CCOC2(CCN(C(=O)C3CCCCCC3)CC2)C1` (centres undefined) displayed an RP-LC retention time of 823 s. In the case of `CCc1noc(NC(C)=O)c1-c1ccc(OC)c(S(=O)(=O)N2CCN(c3ccccn3)CC2)c1`, the RP-LC retention time was determined as 614 s. With `COc1ccc(CN2N=C(C(=O)N3CCCC3)S(=O)(=O)c3ccccc32)cc1`, the RP-LC retention time worked out at 823 s. The compound `O=C(C1CCCN(c2nn3c(=O)c4c(nc3s2)CCCC4)C1)N1CCN(c2ccccc2F)CC1` (centres undefined) showed an RP-LC retention time of 868 s. Compound `Cc1cc(N2CCN(c3ccccn3)CC2)n2nc(C(F)(F)F)c(-c3ccc(F)cc3)c2n1` displayed an RP-LC retention time of 870 s.

Consider `O=C1NCCCn2cc(S(=O)(=O)Nc3ccccc3F)cc21`, for which the RP-LC retention time was 633 s.

In turn, `CS(=O)(=O)Nc1ccc(-c2noc(CNC(=O)Cc3ccc(Cl)cc3)n2)cc1` showed an RP-LC retention time of 788 s. Compound `CC(C)Cn1c(=O)c(N2CCN(C(=O)Cc3cccs3)CC2)nc2ccncc21` gave an RP-LC retention time of 592 s. Next, `Cn1cc(-c2nc(C(=O)NCc3cccc(Cl)c3)cs2)c2cccnc21`: 964 s. Take `CCOc1ccc2ncc(S(=O)(=O)c3ccccc3)c(N3CCN(C)CC3)c2c1`: the RP-LC retention time came out at 787 s. Under `O=C(c1ccco1)N1CCCN(C2CCN(Cc3ccc(F)cc3)C2=O)CC1` (centres undefined) stands 565 s; under `CCN(CC)C(=O)c1ccc2c(c1)N(CC(=O)NCc1ccc3c(c1)OCO3)C(=O)C1CCCCN21` (centres undefined), 826 s.
